Experimental data as given in US12077503B2, “Substituted cyclic amides and their use as herbicides” (FMC CORPORATION, priority 2015, dated 2024).

Columns and labels:
Assay type in all cases: in vivo
[1] = system: giant foxtail (Setaria faberi); assay: Test G Post-Emergence Protocol; conditions: Setaria faberi, post-emergence, 312 h; for pest or weed control at 15.625 g/ha: 15.625 g ai/ha, evaluated after 13 days (100=total damage to plant; 0=no damage to plant), read-out: Foxtail, Giant damage rating; for pest or weed control at 62.5 g/ha: 62.5 g ai/ha, read-out: Foxtail, Giant damage rating (100=total damage to plant; 0=no damage to plant); for pest or weed control at 62.5 g/ha / pest or weed control at 250 g/ha: evaluated after 13 days; for pest or weed control at 250 g/ha: 250 g ai/ha, read-out: damage to plant, Foxtail, Giant (100=total damage to plant; 0=no damage to plant)
Outline: (§1)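 Eight days post-sowing, plants received a spray of test compound (acetone/water 50:50, 0.5% Tween 20) at 15.625, 62.5 or 250 g/ha. Glasshouse regime thereafter: 24/16 °C, 14 h light, 65% humidity. Assessment after 13 days on a 0–100 damage scale.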

corn (Zea mays) [2] = assay: Test G Post-Emergence Protocol; conditions: Zea mays, post-emergence, 312 h; for plant injury at 15.625 g/ha: 15.625 g ai/ha, evaluated after 13 days (100=total damage to plant; 0=no damage to plant), read-out: Corn damage rating; for plant injury at 62.5 g/ha: 62.5 g ai/ha, read-out: Corn damage rating (100=total damage to plant; 0=no damage to plant); for plant injury at 62.5 g/ha / plant injury at 250 g/ha: evaluated after 13 days; for plant injury at 250 g/ha: 250 g ai/ha, read-out: damage to plant, Corn (100=total damage to plant; 0=no damage to plant)
Outline: as §1

[3] = system: velvetleaf (Abutilon theophrasti); assay: Test G Post-Emergence Protocol; conditions: Abutilon theophrasti, post-emergence, 312 h; for pest or weed control at 15.625 g/ha: 15.625 g ai/ha, evaluated after 13 days (100=total damage to plant; 0=no damage to plant), read-out: Velvetleaf damage rating; for pest or weed control at 62.5 g/ha: 62.5 g ai/ha, read-out: Velvetleaf damage rating (100=total damage to plant; 0=no damage to plant); for pest or weed control at 62.5 g/ha / pest or weed control at 250 g/ha: evaluated after 13 days; for pest or weed control at 250 g/ha: 250 g ai/ha, read-out: damage to plant, Velvetleaf (100=total damage to plant; 0=no damage to plant)
Outline: as §1

[4] = system: redroot pigweed (Amaranthus retroflexus); assay: Test G Post-Emergence Protocol; conditions: Amaranthus retroflexus, post-emergence, 312 h; for pest or weed control at 15.625 g/ha: 15.625 g ai/ha, evaluated after 13 days (100=total damage to plant; 0=no damage to plant), read-out: Pigweed, Redroot damage rating; for pest or weed control at 62.5 g/ha: 62.5 g ai/ha, read-out: Pigweed, Redroot damage rating (100=total damage to plant; 0=no damage to plant); for pest or weed control at 62.5 g/ha / pest or weed control at 250 g/ha: evaluated after 13 days; for pest or weed control at 250 g/ha: 250 g ai/ha, read-out: damage to plant, Pigweed, Redroot (100=total damage to plant; 0=no damage to plant)
Outline: as §1

[5] = system: barnyardgrass (Echinochloa crus-galli); assay: Test G Post-Emergence Protocol; conditions: Echinochloa crus-galli, post-emergence, 312 h; for pest or weed control at 15.625 g/ha: 15.625 g ai/ha, evaluated after 13 days (100=total damage to plant; 0=no damage to plant), read-out: Barnyardgrass damage rating; for pest or weed control at 62.5 g/ha: 62.5 g ai/ha, read-out: Barnyardgrass damage rating (100=total damage to plant; 0=no damage to plant); for pest or weed control at 62.5 g/ha / pest or weed control at 250 g/ha: evaluated after 13 days; for pest or weed control at 250 g/ha: 250 g ai/ha, read-out: damage to plant, Barnyardgrass (100=total damage to plant; 0=no damage to plant)
Outline: as §1

[6] = system: ivy-leaved morning glory (Ipomoea hederacea); assay: Test G Post-Emergence Protocol; conditions: Ipomoea, post-emergence, 312 h; for pest or weed control at 15.625 g/ha: 15.625 g ai/ha, evaluated after 13 days (100=total damage to plant; 0=no damage to plant), read-out: Morningglory, Ivy-leaved damage rating; for pest or weed control at 62.5 g/ha: 62.5 g ai/ha, read-out: Morningglory, Ivy-leaved damage rating (100=total damage to plant; 0=no damage to plant); for pest or weed control at 62.5 g/ha / pest or weed control at 250 g/ha: evaluated after 13 days; for pest or weed control at 250 g/ha: 250 g ai/ha, read-out: damage to plant, Morningglory, Ivy-leaved (100=total damage to plant; 0=no damage to plant)
Outline: as §1

[7] = system: giant foxtail (Setaria faberi); assay: Test G Pre-Emergence Protocol; conditions: Setaria faberi, pre-emergence, 312 h, evaluated after 13 days; for pest or weed control at 250 g/ha: 250 g ai/ha
Outline: (§2)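 Herbicidal effect was rated 13 days post-application on a scale where 100 equals total damage. Spraying took place the day after sowing, using 15.625, 62.5 or 250 g/ha of compound in a 50:50 acetone/water solution with 0.5% Tween 20.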

corn (Zea mays) [8] = assay: Test G Pre-Emergence Protocol; conditions: Zea mays, pre-emergence, 312 h, evaluated after 13 days; for plant injury at 15.625 g/ha: 15.625 g ai/ha; for plant injury at 15.625 g/ha / plant injury at 250 g/ha: read-out: Corn damage rating (100=total damage to plant; 0=no damage to plant); for plant injury at 62.5 g/ha: 62.5 g ai/ha, 100=total damage to plant, 0=no damage to plant, read-out: plant damage rating, Corn; for plant injury at 250 g/ha: 250 g ai/ha
Outline: as §2

[9] = system: velvetleaf (Abutilon theophrasti); assay: Test G Pre-Emergence Protocol; conditions: Abutilon theophrasti, pre-emergence, 312 h, evaluated after 13 days; for pest or weed control at 15.625 g/ha: 15.625 g ai/ha; for pest or weed control at 15.625 g/ha / pest or weed control at 250 g/ha: read-out: Velvetleaf damage rating (100=total damage to plant; 0=no damage to plant); for pest or weed control at 62.5 g/ha: 62.5 g ai/ha, 100=total damage to plant, 0=no damage to plant, read-out: plant damage rating, Velvetleaf; for pest or weed control at 250 g/ha: 250 g ai/ha
Outline: as §2

[10] = system: redroot pigweed (Amaranthus retroflexus); assay: Test G Pre-Emergence Protocol; conditions: Amaranthus retroflexus, pre-emergence, 312 h, evaluated after 13 days; for pest or weed control at 15.625 g/ha: 15.625 g ai/ha; for pest or weed control at 15.625 g/ha / pest or weed control at 250 g/ha: read-out: Pigweed, Redroot damage rating (100=total damage to plant; 0=no damage to plant); for pest or weed control at 62.5 g/ha: 62.5 g ai/ha, 100=total damage to plant, 0=no damage to plant, read-out: plant damage rating, Pigweed, Redroot; for pest or weed control at 250 g/ha: 250 g ai/ha
Outline: as §2

[11] = system: barnyardgrass (Echinochloa crus-galli); assay: Test G Pre-Emergence Protocol; conditions: Echinochloa crus-galli, pre-emergence, 312 h, evaluated after 13 days; for pest or weed control at 15.625 g/ha: 15.625 g ai/ha, read-out: Barnyard grass damage rating (100=total damage to plant; 0=no damage to plant); for pest or weed control at 62.5 g/ha: 62.5 g ai/ha, 100=total damage to plant, 0=no damage to plant, read-out: plant damage rating, Barnyardgrass; for pest or weed control at 250 g/ha: 250 g ai/ha, read-out: Barnyardgrass damage rating (100=total damage to plant; 0=no damage to plant)
Outline: as §2

[12] = system: ivy-leaved morning glory (Ipomoea hederacea); assay: Test G Pre-Emergence Protocol; conditions: Ipomoea, pre-emergence, 312 h, evaluated after 13 days; for pest or weed control at 62.5 g/ha: 62.5 g ai/ha, 100=total damage to plant, 0=no damage to plant, read-out: plant damage rating, Morningglory, Ivy-leaved; for pest or weed control at 250 g/ha: 250 g ai/ha, read-out: Morningglory, Ivy-leaved damage rating (100=total damage to plant; 0=no damage to plant)
Outline: as §2

[13] = read-out: Foxtail, Giant damage rating (100=total damage to plant; 0=no damage to plant)

Structure (SMILES)	pest or weed control at 15.625 g/ha [1] [%]	pest or weed control at 62.5 g/ha [1] [%]	pest or weed control at 250 g/ha [1] [%]	plant injury at 15.625 g/ha (corn (Zea mays) [2]) [%]	plant injury at 62.5 g/ha (corn (Zea mays) [2]) [%]	plant injury at 250 g/ha (corn (Zea mays) [2]) [%]	pest or weed control at 15.625 g/ha [3] [%]	pest or weed control at 62.5 g/ha [3] [%]	pest or weed control at 250 g/ha [3] [%]	pest or weed control at 15.625 g/ha [4] [%]	pest or weed control at 62.5 g/ha [4] [%]	pest or weed control at 250 g/ha [4] [%]	pest or weed control at 15.625 g/ha [5] [%]	pest or weed control at 62.5 g/ha [5] [%]	pest or weed control at 250 g/ha [5] [%]	pest or weed control at 15.625 g/ha [6] [%]	pest or weed control at 62.5 g/ha [6] [%]	pest or weed control at 250 g/ha [6] [%]	pest or weed control at 250 g/ha [7, 13] [%]	plant injury at 15.625 g/ha (corn (Zea mays) [8]) [%]	also measured
CN1C[C@H](c2ccc(C(F)(F)F)cc2)[C@@H](C(=O)Nc2ccc(F)c(Cl)c2)C1=O (racemic) [Compound 1434]	0	0	30	10	0	10	0	0	10	0	0	20	0	0	20	0	0	0	50	0	pest or weed control at 15.625 g/ha ([7]; 15.625 g ai/ha, read-out: Foxtail, Giant damage rating (100=total damage to plant; 0=no damage to plant)): 0%; pest or weed control at 62.5 g/ha ([7]; 62.5 g ai/ha, 100=total damage to plant, 0=no damage to plant, read-out: plant damage rating, Foxtail, Giant): 20%; plant injury at 62.5 g/ha (corn (Zea mays) [8]): 0%; plant injury at 250 g/ha (corn (Zea mays) [8]): 0%; pest or weed control at 15.625 g/ha [9]: 0%; pest or weed control at 62.5 g/ha [9]: 0%; pest or weed control at 250 g/ha [9]: 0%; pest or weed control at 15.625 g/ha [10]: 0%; pest or weed control at 62.5 g/ha [10]: 0%; pest or weed control at 250 g/ha [10]: 0%; pest or weed control at 15.625 g/ha [11]: 0%; pest or weed control at 62.5 g/ha [11]: 0%; pest or weed control at 250 g/ha [11]: 20%; pest or weed control at 15.625 g/ha ([12]; 15.625 g ai/ha, read-out: Morning-glory, Ivy-leaved damage rating (100=total damage to plant; 0=no damage to plant)): 0%; pest or weed control at 62.5 g/ha [12]: 0%; pest or weed control at 250 g/ha [12]: 0%
CN1C[C@@H](c2ccc(C(F)(F)F)cc2)[C@H](C(=O)Nc2nnc[nH]2)C1=O (racemic) [Compound 1562]	0	0	20	0	10	0	0	0	0	0	10	20	0	0	20	0	0	0	30	0	plant injury at 62.5 g/ha (corn (Zea mays) [8]): 0%; plant injury at 250 g/ha (corn (Zea mays) [8]): 0%; pest or weed control at 15.625 g/ha [9]: 0%; pest or weed control at 62.5 g/ha [9]: 0%; pest or weed control at 250 g/ha [9]: 0%; pest or weed control at 15.625 g/ha [10]: 0%; pest or weed control at 62.5 g/ha [10]: 0%; pest or weed control at 250 g/ha [10]: 0%; pest or weed control at 15.625 g/ha [11]: 0%; pest or weed control at 62.5 g/ha [11]: 0%; pest or weed control at 250 g/ha [11]: 20%; pest or weed control at 62.5 g/ha [12]: 0%; pest or weed control at 250 g/ha [12]: 0%
